≈ marks a conversion by molar mass, not a printed value.
Key:
Format in all cases: cell-based
[1] = test system: Clostridium cylindrosporum A9562; assay: MIC, serial two-fold dilution method (anaerobic)
[2] = test system: Staphylococcus aureus A20610; assay: MIC, serial two-fold dilution method (aerobic)
[3] = test system: Staphylococcus aureus A20239; assay: MIC, serial two-fold dilution method (aerobic)
[4] = test system: Pseudomonas aeruginosa D-113; assay: MIC, serial two-fold dilution method (aerobic)
[5] = test system: Staphylococcus aureus 209P; assay: MIC, serial two-fold dilution method (aerobic)
[6] = test system: Klebsiella pneumoniae D-11; assay: MIC, serial two-fold dilution method (aerobic)
[7] = test system: Peptostreptococcus anaerobius A21905; assay: MIC, serial two-fold dilution method (anaerobic)
Micrococcus flavus D-12 = assay: MIC, serial two-fold dilution method (aerobic)
[8] = test system: Peptostreptococcus intermedius A21881; assay: MIC, serial two-fold dilution method (anaerobic)
[9] = test system: Bacteroides fragilis A22533; assay: MIC, serial two-fold dilution method (anaerobic)
[10] = test system: Bacteroides fragilis A20928-1; assay: MIC, serial two-fold dilution method (anaerobic)
[11] = test system: Bacillus anthracis IID-115; assay: microbe, parasite or virus in culture
[12] = test system: Bacteroides ovatus A22400; assay: MIC, serial two-fold dilution method (anaerobic)
[13] = test system: Neisseria gonorrhoeae A15112; assay: MIC, serial two-fold dilution method (aerobic)
[14] = test system: Bacteroides fragilis A20929; assay: MIC, serial two-fold dilution method (anaerobic)
[15] = test system: Staphylococcus aureus A20701; assay: MIC, serial two-fold dilution method (aerobic)
[16] = test system: Staphylococcus aureus Smith; assay: MIC, serial two-fold dilution method (aerobic)
[17] = test system: Staphylococcus aureus A20394; assay: MIC, serial two-fold dilution method (aerobic)
[18] = test system: Propionibacterium acnes A22650; assay: MIC, serial two-fold dilution method (anaerobic)
[19] = test system: Staphylococcus aureus A9601; assay: MIC, serial two-fold dilution method (aerobic)
Escherichia coli NIHJ = assay: MIC, serial two-fold dilution method (aerobic)
[20] = test system: Propionibacterium acnes A21933; assay: MIC, serial two-fold dilution method (anaerobic)
[21] = test system: Fusobacterium necrophorum A20013; assay: MIC, serial two-fold dilution method (anaerobic)
[22] = test system: Bacteroides fragilis CUH-24; assay: MIC, serial two-fold dilution method (anaerobic)
[23] = test system: Propionibacterium acnes A21953; assay: MIC, serial two-fold dilution method (anaerobic)
[24] = test system: Clostridium acidiurici A9560; assay: MIC, serial two-fold dilution method (anaerobic)

CN[C@H](CC(C)C)C(=O)N[C@H]1C(=O)N[C@@H](CC(N)=O)C(=O)N[C@H]2C(=O)N[C@H]3C(=O)N[C@H](C(=O)N[C@H](C(=O)O)c4cc(O)cc(O)c4-c4cc3ccc4O)[C@H](O)c3ccc(c(Cl)c3)Oc3cc2cc(c3O[C@@H]2O[C@H](CO)[C@@H](O)[C@H](O)[C@H]2O[C@H]2C[C@](C)(N)[C@H](O)[C@H](C)O2)Oc2ccc(cc2Cl)[C@H]1O [Vancomycin]
MIC ([1]; Clostridium cylindrosporum, A9562, read-out: minimum inhibitory concentration (MIC)): 0.8 µg/mL (≈ 0.552 µM)
MIC ([2]; Staphylococcus aureus, A20610, read-out: minimum inhibitory concentration (MIC)): 0.8 µg/mL (≈ 0.552 µM)
MIC ([3]; Staphylococcus aureus, A20239, read-out: minimum inhibitory concentration (MIC)): 1.6 µg/mL (≈ 1.1 µM)
MIC ([4]; Pseudomonas aeruginosa, D113, read-out: minimum inhibitory concentration (MIC)): > 100 µg/mL
MIC ([5]; Staphylococcus aureus, 209P, read-out: minimum inhibitory concentration (MIC)): 0.4 µg/mL (≈ 0.276 µM)
MIC ([6]; Klebsiella pneumoniae, D11, read-out: minimum inhibitory concentration (MIC)): > 100 µg/mL
MIC ([7]; Peptostreptococcus anaerobius, A21905, read-out: minimum inhibitory concentration (MIC)): 0.4 µg/mL (≈ 0.276 µM)
MIC (Micrococcus flavus D-12; Micrococcus flavus, D12, read-out: minimum inhibitory concentration (MIC)): 0.2 µg/mL (≈ 0.138 µM)
MIC ([8]; Peptostreptococcus, A21881, read-out: minimum inhibitory concentration (MIC)): 1.6 µg/mL (≈ 1.1 µM)
MIC ([9]; Bacteroides fragilis, A22533, read-out: minimum inhibitory concentration (MIC)): 50 µg/mL (≈ 34.5 µM)
MIC ([10]; Bacteroides fragilis, A209281, read-out: minimum inhibitory concentration (MIC)): 3.1 µg/mL (≈ 2.14 µM)
MIC ([11]; Bacillus anthracis, IID115, read-out: minimum inhibitory concentration (MIC)): 1.6 µg/mL (≈ 1.1 µM)
MIC ([12]; Bacteroides ovatus, A22400, read-out: minimum inhibitory concentration (MIC)): 50 µg/mL (≈ 34.5 µM)
MIC ([13]; Neisseria gonorrhoeae, A15112, read-out: minimum inhibitory concentration (MIC)): > 100 µg/mL
MIC ([14]; Bacteroides fragilis, A20929, read-out: minimum inhibitory concentration (MIC)): 0.8 µg/mL (≈ 0.552 µM)
MIC ([15]; Staphylococcus aureus, A20701, read-out: minimum inhibitory concentration (MIC)): 0.8 µg/mL (≈ 0.552 µM)
MIC ([16]; Staphylococcus aureus, read-out: minimum inhibitory concentration (MIC)): 0.8 µg/mL (≈ 0.552 µM)
MIC ([17]; Staphylococcus aureus, A20394, read-out: minimum inhibitory concentration (MIC)): 0.4 µg/mL (≈ 0.276 µM)
MIC ([18]; Cutibacterium acnes, A22650, read-out: minimum inhibitory concentration (MIC)): 0.8 µg/mL (≈ 0.552 µM)
MIC ([19]; Staphylococcus aureus, A9601, read-out: minimum inhibitory concentration (MIC)): 0.8 µg/mL (≈ 0.552 µM)
MIC (Escherichia coli NIHJ; Escherichia coli, read-out: minimum inhibitory concentration (MIC)): > 100 µg/mL
MIC ([20]; Cutibacterium acnes, A21933, read-out: minimum inhibitory concentration (MIC)): 0.8 µg/mL (≈ 0.552 µM)
MIC ([21]; Fusobacterium necrophorum, A20013, read-out: minimum inhibitory concentration (MIC)): > 100 µg/mL
MIC ([22]; Bacteroides fragilis, CUH24, read-out: minimum inhibitory concentration (MIC)): 25 µg/mL (≈ 17.3 µM)
MIC ([23]; Cutibacterium acnes, A21953, read-out: minimum inhibitory concentration (MIC)): 0.8 µg/mL (≈ 0.552 µM)
MIC ([24]; Gottschalkia acidurici, A9560, read-out: minimum inhibitory concentration (MIC)): 0.8 µg/mL (≈ 0.552 µM)

Amphomycin
minimum inhibitory concentration (MIC) ([1]; Clostridium cylindrosporum A9562, GAM agar medium, inoculum 10^7-10^8): 25 µg/mL
minimum inhibitory concentration (MIC) ([2]; Staphylococcus aureus A20610, Mueller-Hinton agar, inoculum 10^4): 3.1 µg/mL
minimum inhibitory concentration (MIC) ([3]; Staphylococcus aureus A20239, Mueller-Hinton agar, inoculum 10^4): 6.3 µg/mL
minimum inhibitory concentration (MIC) ([4]; Pseudomonas aeruginosa D-113, Mueller-Hinton agar, inoculum 10^4): > 100 µg/mL
minimum inhibitory concentration (MIC) ([5]; Staphylococcus aureus 209P, Mueller-Hinton agar, inoculum 10^4): 3.1 µg/mL
minimum inhibitory concentration (MIC) ([6]; Klebsiella pneumoniae D-11, Mueller-Hinton agar, inoculum 10^4): > 100 µg/mL
minimum inhibitory concentration (MIC) ([7]; Peptostreptococcus anaerobius A21905, GAM agar medium, inoculum 10^7-10^8): 3.1 µg/mL
minimum inhibitory concentration (MIC) (Micrococcus flavus D-12; Micrococcus flavus D-12, Mueller-Hinton agar, inoculum 10^4): 0.4 µg/mL
minimum inhibitory concentration (MIC) ([8]; Peptostreptococcus intermedius A21881, GAM agar medium, inoculum 10^7-10^8): 6.3 µg/mL
minimum inhibitory concentration (MIC) ([9]; Bacteroides fragilis A22533, GAM agar medium, inoculum 10^7-10^8): > 100 µg/mL
minimum inhibitory concentration (MIC) ([10]; Bacteroides fragilis A20928-1, GAM agar medium, inoculum 10^7-10^8): 25 µg/mL
minimum inhibitory concentration (MIC) ([11]; Bacillus anthracis IID-115, Mueller-Hinton agar, inoculum 10^4): 0.8 µg/mL
minimum inhibitory concentration (MIC) ([12]; Bacteroides ovatus A22400, GAM agar medium, inoculum 10^7-10^8): > 100 µg/mL
minimum inhibitory concentration (MIC) ([13]; Neisseria gonorrhoeae A15112, GC medium, inoculum 10^6 CFU/ml): > 100 µg/mL
minimum inhibitory concentration (MIC) ([14]; Bacteroides fragilis A20929, GAM agar medium, inoculum 10^7-10^8): 50 µg/mL
minimum inhibitory concentration (MIC) ([15]; Staphylococcus aureus A20701, Mueller-Hinton agar, inoculum 10^4): 6.3 µg/mL
minimum inhibitory concentration (MIC) ([16]; Staphylococcus aureus Smith, Mueller-Hinton agar, inoculum 10^4): 3.1 µg/mL
minimum inhibitory concentration (MIC) ([17]; Staphylococcus aureus A20394, Mueller-Hinton agar, inoculum 10^4): 3.1 µg/mL
minimum inhibitory concentration (MIC) ([18]; Propionibacterium acnes A22650, GAM agar medium, inoculum 10^7-10^8): 6.3 µg/mL
minimum inhibitory concentration (MIC) ([19]; Staphylococcus aureus A9601, Mueller-Hinton agar, inoculum 10^4): 3.1 µg/mL
minimum inhibitory concentration (MIC) (Escherichia coli NIHJ; Escherichia coli NIHJ, Mueller-Hinton agar, inoculum 10^4): > 100 µg/mL
minimum inhibitory concentration (MIC) ([20]; Propionibacterium acnes A21933, GAM agar medium, inoculum 10^7-10^8): 3.1 µg/mL
minimum inhibitory concentration (MIC) ([21]; Fusobacterium necrophorum A20013, GAM agar medium, inoculum 10^7-10^8): > 100 µg/mL
minimum inhibitory concentration (MIC) ([22]; Bacteroides fragilis CUH-24, GAM agar medium, inoculum 10^7-10^8): > 100 µg/mL
minimum inhibitory concentration (MIC) ([23]; Propionibacterium acnes A21953, GAM agar medium, inoculum 10^7-10^8): 6.3 µg/mL
minimum inhibitory concentration (MIC) ([24]; Clostridium acidiurici A9560, GAM agar medium, inoculum 10^7-10^8): 3.1 µg/mL

— patent US4409210A, “Antibiotic compound” (priority 1982, dated 1983)
